In brackets after ≈: the same amount, converted by molar mass. Read-outs that look alike come from different tables or passages of the source.
System: S. aureus clinical isolates and S. aureus ATCC 29213
Assay: MIC assay according to CLSI criteria, Example 2, S. aureus strains
Format: cell-based, Staphylococcus aureus
Settings: for MIC: Staphylococcus aureus, read-out: MIC
Experimental: Strains were conserved in Luria Bertani (LB) Broth (S. aureus) or Brain Heart Infusion (BHI) (S. pyogenes) supplemented with glycerol 15% (v/v) at −80° C., and reactivated by isolation on LB (S. aureus) or BHI (S. pyogenes) agar plates. Strains were cultivated in Mueller Hinton (MH) Broth-cation adjusted (S. aureus) or BHI (S. pyogenes). All strains were cultivated aerobically (microaerobically for S. pyogenes strains) at 37° C.
Bacterial cultures were stopped in their exponential growth phase and plates were inoculated with the approximate concentration of 5×10^5 cells per well. Plates were incubated at 37° C. for 18 hours (S. aureus) or 24 hours (S. pyogenes).

[1] = ATCC29213, Staphylococcus aureus strains
[2] = S. aureus strains with MIC 0.5 μg/ml

## O=C(Nc1ccc([N+](=O)[O-])cc1Cl)c1cc(Cl)ccc1O [Niclosamide, 5-chloro-N-(2-chloro-4-nitrophenyl)-2-hydroxybenz-amide]
[1]
  MIC50: 0.25 µg/mL (≈ 0.764 µM)
  MIC90: 0.5 µg/mL (≈ 1.53 µM)
[2]
  MIC distribution (percentage of strains): 27%
  MIC distribution (ratio of strains): (55/205)
Staphylococcus aureus strains
  MIC Range values: 0.125 to 0.5 µg/mL
ATCC29213, all targeted S. aureus strains, including resistant strains
  MIC: ≤ 0.5 µg/mL
ATCC29213, strain 9-1862936
  MIC: 0.5 µg/mL (≈ 1.53 µM)
ATCC29213, strain 9-2625962
  MIC: 0.5 µg/mL (≈ 1.53 µM)
ATCC29213, strain 9-2642158
  MIC: 0.25 µg/mL (≈ 0.764 µM)
ATCC29213, strain 9-2955245
  MIC: 0.25 µg/mL (≈ 0.764 µM)
ATCC29213, strain 9-26422166
  MIC: 0.5 µg/mL (≈ 1.53 µM)
ATCC29213, strain 000040C
  MIC: 0.5 µg/mL (≈ 1.53 µM)
ATCC29213, strain 000041C
  MIC: 0.25 µg/mL (≈ 0.764 µM)
ATCC29213, strain 000274T
  MIC: 0.25 µg/mL (≈ 0.764 µM)
ATCC29213, strain 114660U
  MIC: 0.25 µg/mL (≈ 0.764 µM)
ATCC29213, strain 115015T
  MIC: 0.5 µg/mL (≈ 1.53 µM)
ATCC29213, strain 115242C
  MIC: 0.5 µg/mL (≈ 1.53 µM)
ATCC29213, strain 115263C
  MIC: 0.25 µg/mL (≈ 0.764 µM)
ATCC29213, strain 115268C
  MIC: 0.5 µg/mL (≈ 1.53 µM)
ATCC29213, strain 115273C
  MIC: 0.5 µg/mL (≈ 1.53 µM)
ATCC29213, strain 115295C
  MIC: 0.25 µg/mL (≈ 0.764 µM)
ATCC29213, strain 115303C
  MIC: 0.5 µg/mL (≈ 1.53 µM)
ATCC29213, strain 115370U
  MIC: 0.25 µg/mL (≈ 0.764 µM)
ATCC29213, strain 115427C
  MIC: 0.25 µg/mL (≈ 0.764 µM)
ATCC29213, strain 115445C
  MIC: 0.5 µg/mL (≈ 1.53 µM)
ATCC29213, strain 115561C
  MIC: 0.25 µg/mL (≈ 0.764 µM)
ATCC29213, strain 115584D
  MIC: 0.25 µg/mL (≈ 0.764 µM)
ATCC29213, strain 115628T
  MIC: 0.25 µg/mL (≈ 0.764 µM)
ATCC29213, strain 115690C
  MIC: 0.25 µg/mL (≈ 0.764 µM)
ATCC29213, strain 115691T
  MIC: 0.5 µg/mL (≈ 1.53 µM)
ATCC29213, strain 115740E
  MIC: 0.5 µg/mL (≈ 1.53 µM)
ATCC29213, strain 115810E
  MIC: 0.25 µg/mL (≈ 0.764 µM)
ATCC29213, strain 115903T
  MIC: 0.5 µg/mL (≈ 1.53 µM)
ATCC29213, strain 116122T
  MIC: 0.25 µg/mL (≈ 0.764 µM)
ATCC29213, strain ATCC 29213
  MIC: 0.5 µg/mL (≈ 1.53 µM)
ATCC29213, strain E5-1029252
  MIC: 0.25 µg/mL (≈ 0.764 µM)
ATCC29213, strain E5-1029558
  MIC: 0.25 µg/mL (≈ 0.764 µM)
ATCC29213, strain E5-1030440
  MIC: 0.25 µg/mL (≈ 0.764 µM)
ATCC29213, strain E5-1030469
  MIC: 0.25 µg/mL (≈ 0.764 µM)
ATCC29213, strain E5-1030472
  MIC: 0.5 µg/mL (≈ 1.53 µM)
ATCC29213, strain E5-1030482
  MIC: 0.125 µg/mL (≈ 0.382 µM)
ATCC29213, strain E5-1033076 (first line, r202)
  MIC: 0.5 µg/mL (≈ 1.53 µM)
ATCC29213, strain E5-1033076 (second line, r203)
  MIC: 0.5 µg/mL (≈ 1.53 µM)
ATCC29213, strain E5-1033088
  MIC: 0.25 µg/mL (≈ 0.764 µM)
ATCC29213, strain E5-1033091
  MIC: 0.5 µg/mL (≈ 1.53 µM)
ATCC29213, strain E5-1035277
  MIC: 0.5 µg/mL (≈ 1.53 µM)
ATCC29213, strain E5-1035284
  MIC: 0.25 µg/mL (≈ 0.764 µM)
ATCC29213, strain E5-1035775
  MIC: 0.5 µg/mL (≈ 1.53 µM)
ATCC29213, strain E5-1035779
  MIC: 0.5 µg/mL (≈ 1.53 µM)
ATCC29213, strain E5-1037958
  MIC: 0.5 µg/mL (≈ 1.53 µM)
ATCC29213, strain E5-1037971
  MIC: 0.25 µg/mL (≈ 0.764 µM)
ATCC29213, strain E5-1038279
  MIC: 0.5 µg/mL (≈ 1.53 µM)
ATCC29213, strain E5-1038286
  MIC: 0.25 µg/mL (≈ 0.764 µM)
ATCC29213, strain E5-1038294
  MIC: 0.5 µg/mL (≈ 1.53 µM)
ATCC29213, strain E5-1039684
  MIC: 0.5 µg/mL (≈ 1.53 µM)
ATCC29213, strain E5-1039697
  MIC: 0.25 µg/mL (≈ 0.764 µM)
ATCC29213, strain E5-1041977
  MIC: 0.5 µg/mL (≈ 1.53 µM)
ATCC29213, strain E5-1041979
  MIC: 0.5 µg/mL (≈ 1.53 µM)
ATCC29213, strain E5-1041980
  MIC: 0.25 µg/mL (≈ 0.764 µM)
ATCC29213, strain E5-1041987
  MIC: 0.5 µg/mL (≈ 1.53 µM)
ATCC29213, strain E5-1043184
  MIC: 0.5 µg/mL (≈ 1.53 µM)
ATCC29213, strain E5-1043668
  MIC: 0.25 µg/mL (≈ 0.764 µM)
ATCC29213, strain E5-1045179
  MIC: 0.25 µg/mL (≈ 0.764 µM)
ATCC29213, strain E5-1046019
  MIC: 0.25 µg/mL (≈ 0.764 µM)
ATCC29213, strain E5-1046020
  MIC: 0.5 µg/mL (≈ 1.53 µM)
ATCC29213, strain E5-1046039
  MIC: 0.25 µg/mL (≈ 0.764 µM)
ATCC29213, strain E5-1046070
  MIC: 0.25 µg/mL (≈ 0.764 µM)
ATCC29213, strain E5-1046074
  MIC: 0.25 µg/mL (≈ 0.764 µM)
ATCC29213, strain E5-1046085
  MIC: 0.5 µg/mL (≈ 1.53 µM)
ATCC29213, strain E5-1046096
  MIC: 0.5 µg/mL (≈ 1.53 µM)
ATCC29213, strain E5-1046296
  MIC: 0.5 µg/mL (≈ 1.53 µM)
ATCC29213, strain E5-1046297
  MIC: 0.5 µg/mL (≈ 1.53 µM)
ATCC29213, strain E5-1046298
  MIC: 0.25 µg/mL (≈ 0.764 µM)
ATCC29213, strain E5-1046723
  MIC: 0.25 µg/mL (≈ 0.764 µM)
ATCC29213, strain E5-1047585
  MIC: 0.25 µg/mL (≈ 0.764 µM)
ATCC29213, strain E5-1047606
  MIC: 0.5 µg/mL (≈ 1.53 µM)
ATCC29213, strain E5-1047924
  MIC: 0.5 µg/mL (≈ 1.53 µM)
ATCC29213, strain E5-1048204
  MIC: 0.25 µg/mL (≈ 0.764 µM)
ATCC29213, strain E5-1048428
  MIC: 0.25 µg/mL (≈ 0.764 µM)
ATCC29213, strain E5-1048654
  MIC: 0.25 µg/mL (≈ 0.764 µM)
ATCC29213, strain E5-1048670
  MIC: 0.125 µg/mL (≈ 0.382 µM)
ATCC29213, strain EEFIC 01
  MIC: 0.25 µg/mL (≈ 0.764 µM)
ATCC29213, strain EEFIC 02
  MIC: 0.25 µg/mL (≈ 0.764 µM)
ATCC29213, strain K000772
  MIC: 0.25 µg/mL (≈ 0.764 µM)
ATCC29213, strain K000796
  MIC: 0.25 µg/mL (≈ 0.764 µM)
ATCC29213, strain K000863
  MIC: 0.25 µg/mL (≈ 0.764 µM)
ATCC29213, strain K000864
  MIC: 0.25 µg/mL (≈ 0.764 µM)
ATCC29213, strain K000866
  MIC: 0.25 µg/mL (≈ 0.764 µM)
ATCC29213, strain K115498
  MIC: 0.25 µg/mL (≈ 0.764 µM)
ATCC29213, strain K115688
  MIC: 0.25 µg/mL (≈ 0.764 µM)
ATCC29213, strain K115689
  MIC: 0.25 µg/mL (≈ 0.764 µM)
ATCC29213, strain R000019
  MIC: 0.5 µg/mL (≈ 1.53 µM)
ATCC29213, strain R000020
  MIC: 0.5 µg/mL (≈ 1.53 µM)
ATCC29213, strain R000024
  MIC: 0.25 µg/mL (≈ 0.764 µM)
ATCC29213, strain U115579
  MIC: 0.25 µg/mL (≈ 0.764 µM)
ATCC 29213 / MRSA, strain MRSA 01
  MIC: 0.25 µg/mL (≈ 0.764 µM)
ATCC 29213 / MRSA, strain MRSA 02
  MIC: 0.25 µg/mL (≈ 0.764 µM)
ATCC 29213 / MRSA, strain MRSA 03
  MIC: 0.25 µg/mL (≈ 0.764 µM)
ATCC 29213 / MRSA, strain MRSA 04
  MIC: 0.25 µg/mL (≈ 0.764 µM)
ATCC 29213 / MRSA, strain MRSA 05
  MIC: 0.25 µg/mL (≈ 0.764 µM)
ATCC 29213 / MRSA, strain MRSA 06
  MIC: 0.25 µg/mL (≈ 0.764 µM)
ATCC 29213 / MRSA, strain MRSA 07
  MIC: 0.125 µg/mL (≈ 0.382 µM)
ATCC 29213 / MRSA, strain MRSA 08
  MIC: 0.25 µg/mL (≈ 0.764 µM)
ATCC 29213 / MRSA, strain MRSA 09
  MIC: 0.125 µg/mL (≈ 0.382 µM)
ATCC 29213 / MRSA, strain MRSA 10
  MIC: 0.25 µg/mL (≈ 0.764 µM)
ATCC 29213 / MRSA, strain MRSA 11
  MIC: 0.25 µg/mL (≈ 0.764 µM)
